This is an account of results in patent US20150322083A1, “(THIENO[2,3-b][1,5]BENZOXAZEPIN-4-YL)PIPERAZIN-1-YL COMPOUNDS AS SELECTIVE 5-HT2A INVERSE AGONISTS” (Eli Lilly and Company, priority 2014, published 2015).

Data set [1] deals with Dopamine Transporter (Homo sapiens, UniProt Q01959). Kind of data set: Dopamine transporter binding. As for the experimental part:
(§1) Curves are evaluated using a 4-parameter logistic nonlinear equation to obtain the concentration of competitor causing 50% inhibition of radioligand binding (IC50). Equilibrium dissociation constants (Ki) are calculated according to the equation Ki=IC50/(1+L/Kd), where L equals the concentration of radioligand used in the experiment and Kd equals the equilibrium dissociation constant of the radioligand for the receptor, determined from standard saturation analysis or homologous competition experiments. Reported values for Ki, where n values are indicated, are shown as geometric mean±the standard error of the mean (SEM), with the number of replicate determinations indicated by n. Geometric means are calculated by the equation GeoMean=10̂(Average(log Ki 1+log Ki 2+ . . . log Ki n)/[…]).
(§2) Further, the compounds of the invention may be tested in binding assays and functional activity assays by well known methods for other physiologically important receptors such as, but not limited to, the hERG channel, other serotonin receptors (specifically 5-HT1B receptors, lack of agonist activity at 5-HT2B receptors, 5-HT2C, 5-HT5, 5-HT6, and 5-HT7 receptors), dopaminergic receptors (specifically D1, D2, and D3), H1 receptors, GABAA receptors, adrenergic receptors and monoamine transporters.

Data set [2] deals with DOI induced headshake response. The experiment in a line: Inhibition of DOI induced headshake activity. It counts as in vivo, male C57BL/6J mice. The settings on record: mice, PO, 60 min. pre-treatment, DOI 3 mg/kg subcutaneously. The method, then:
(see for example Bartoszyk G D, van Amsterdam C, Böttcher H, Seyfried C A. EMD 281014, a new selective serotonin 5-HT2A receptor antagonist. Eur J Pharmacol. 2003 473: 229-230.) This assay has also be used as an indicator of anti-psychotic therapeutic potential. Briefly, male C57BL/6J mice (20-25 g, Charles River) are housed in standard housing conditions (32 mice in a large IVC cage, 07.00 to 19.00 light phase, constant temperature (19-23° C.) and humidity (50%+/−10), ad lib food and water). Mice received either vehicle (0.25% Methyl cellulose), DOI (3 mg/kg in saline) or test compound at doses up to 10 mg/kg PO plus DOI (3 mg/kg in saline). Test compounds are individually evaluated at 4 doses with n=4 for each dose, together with vehicle and DOI+vehicle (n=8). After a test compound pre-treatment time of 60 min. the mice receive either vehicle (saline) or 3 mg/kg DOI dosed subcutaneously, and are then placed into clear perspex observation chambers. […] The data is analyzed using an ANOVA and post-hoc Dunnet's Test. The compounds of Example 1 and Example 2 are tested essentially as described and are found to inhibit the DOI induced headshake response with an approximate EC50 of 0.5 mg/kg for both compounds.

Data set [3] deals with Adrenergic alpha2C (Homo sapiens, UniProt P18825). The experiment in a line: Adrenergic alpha2C binding. The method, then: as §1, §2
The target of data set [4] is recombinant human 5-HT2A receptor (Homo sapiens, UniProt P28223). The experiment in a line: 5-HT2A competition binding assay ([3H]-Ketanserin, SPA). The arrangement: expressed in transfected cells. The method, then: [^3H]-Ketanserin binding experiments are carried out in SPA 96-well format. Membranes used in this assay are prepared from AV-12 cells stably expressing recombinant 5-HT2A receptors (human). The incubation is initiated by the addition of a mixture of WGA YSi SPA beads (1 mg/well, Perkin Elmer (MA, USA), Product No. RPNQ0011) and 2 μg membranes to assay buffer (67 mM Tris, 0.5 mM EDTA; pH 7.6) containing 3.1 nM [^3H]-Ketanserin and varying concentrations of the test compound (10 point concentration response curves). Non-specific binding is determined in the presence of 20 μM 1-(1-naphthyl)piperazine. Samples are incubated for 4 hr. at room temperature (22° C.) and then read in a microplate scintillation counter.
Curves are evaluated using a 4-parameter logistic nonlinear equation to obtain the concentration of competitor causing 50% inhibition of radioligand binding (IC50). Equilibrium dissociation constants (Ki) are calculated according to the equation Ki=IC50/(1+L/Kd), where L equals the concentration of radioligand used in the experiment and Kd equals the equilibrium dissociation constant of the radioligand for the receptor, determined from standard saturation analysis or homologous competition experiments. […]

In data set [5] the target is hERG channel (Homo sapiens, UniProt Q12809). The experiment in a line: hERG channel assay (selectivity data).
Text: as §2

In data set [6] the target is 5-HT2B (Homo sapiens, UniProt P41595). The experiment in a line: 5-HT2B binding (selectivity data). As for the experimental part:
as §1, §2

In data set [7] the target is 5-HT5 (Homo sapiens, UniProt P47898). Kind of data set: 5-HT5 binding. As for the experimental part: as §1, §2
In data set [8] the target is Adrenergic alpha2A (Homo sapiens, UniProt P08913). Kind of data set: Adrenergic alpha2A binding. As for the experimental part:
as §1, §2

For data set [9], the target named is Adrenergic alpha1A (Homo sapiens, UniProt P35348). Kind of data set: Adrenergic alpha1A binding. As for the experimental part: as §1, §2
Data set [10] addresses 5-HT7 receptors (Homo sapiens, UniProt P34969). Kind of data set: 5-HT7 binding. The method, then:
as §1, §2

Data set [11] deals with Serotonin Transporter (Homo sapiens, UniProt P31645). Kind of data set: Serotonin transporter binding. As for the experimental part:
as §1, §2

The target in data set [12] is Dopamine D1 (Homo sapiens, UniProt P21728). Kind of data set: Dopamine D1 binding. As for the experimental part: as §1, §2
Data set [13] has as its target H1 receptors (Homo sapiens, UniProt P35367). Kind of data set: H1 receptor binding. As for the experimental part:
as §1, §2

Chain of 5-HT2B (P41595 whole entry, species assumed): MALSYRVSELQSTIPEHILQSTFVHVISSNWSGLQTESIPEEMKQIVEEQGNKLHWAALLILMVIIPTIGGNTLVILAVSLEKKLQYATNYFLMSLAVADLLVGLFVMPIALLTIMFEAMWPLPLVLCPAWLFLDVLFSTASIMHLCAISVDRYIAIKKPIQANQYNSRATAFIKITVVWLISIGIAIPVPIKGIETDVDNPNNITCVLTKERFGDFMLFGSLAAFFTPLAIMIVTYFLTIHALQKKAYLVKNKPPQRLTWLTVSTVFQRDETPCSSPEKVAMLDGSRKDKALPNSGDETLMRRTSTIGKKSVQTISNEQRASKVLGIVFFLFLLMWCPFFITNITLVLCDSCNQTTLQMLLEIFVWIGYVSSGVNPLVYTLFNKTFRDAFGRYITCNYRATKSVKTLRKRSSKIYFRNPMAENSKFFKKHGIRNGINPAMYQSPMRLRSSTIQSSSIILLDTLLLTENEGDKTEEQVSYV
Chain of hERG channel (Q12809 whole entry): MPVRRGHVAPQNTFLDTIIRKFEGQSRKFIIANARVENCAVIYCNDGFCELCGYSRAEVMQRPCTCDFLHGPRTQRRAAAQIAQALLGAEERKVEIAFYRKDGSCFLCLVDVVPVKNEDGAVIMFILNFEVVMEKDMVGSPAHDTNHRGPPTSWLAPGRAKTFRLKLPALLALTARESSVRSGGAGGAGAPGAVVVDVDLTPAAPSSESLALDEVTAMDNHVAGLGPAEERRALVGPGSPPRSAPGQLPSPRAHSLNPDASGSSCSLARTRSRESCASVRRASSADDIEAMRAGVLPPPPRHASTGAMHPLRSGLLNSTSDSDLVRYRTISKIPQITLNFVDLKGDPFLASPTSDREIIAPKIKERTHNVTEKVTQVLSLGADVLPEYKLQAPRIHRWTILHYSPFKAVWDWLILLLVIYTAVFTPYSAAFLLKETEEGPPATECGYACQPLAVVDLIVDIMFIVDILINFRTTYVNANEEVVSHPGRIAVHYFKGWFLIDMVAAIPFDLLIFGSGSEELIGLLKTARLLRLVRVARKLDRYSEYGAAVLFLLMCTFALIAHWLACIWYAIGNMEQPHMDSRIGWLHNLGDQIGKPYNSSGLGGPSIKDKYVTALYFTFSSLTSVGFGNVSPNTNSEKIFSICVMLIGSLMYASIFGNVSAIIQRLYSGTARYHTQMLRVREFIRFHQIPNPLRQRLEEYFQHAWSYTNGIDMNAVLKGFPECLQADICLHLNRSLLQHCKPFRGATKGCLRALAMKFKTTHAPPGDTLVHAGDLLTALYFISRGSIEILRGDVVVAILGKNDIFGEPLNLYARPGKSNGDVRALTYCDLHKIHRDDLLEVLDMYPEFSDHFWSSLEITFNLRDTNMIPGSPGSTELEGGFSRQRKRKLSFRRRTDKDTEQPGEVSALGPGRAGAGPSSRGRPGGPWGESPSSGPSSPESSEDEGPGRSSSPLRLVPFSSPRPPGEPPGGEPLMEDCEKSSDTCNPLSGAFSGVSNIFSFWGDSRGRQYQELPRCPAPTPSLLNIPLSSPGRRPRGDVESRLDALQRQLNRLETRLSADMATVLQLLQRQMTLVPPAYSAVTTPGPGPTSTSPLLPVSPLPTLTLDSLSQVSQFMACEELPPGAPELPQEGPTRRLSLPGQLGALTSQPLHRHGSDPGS
Chain of Dopamine Transporter (Q01959 whole entry): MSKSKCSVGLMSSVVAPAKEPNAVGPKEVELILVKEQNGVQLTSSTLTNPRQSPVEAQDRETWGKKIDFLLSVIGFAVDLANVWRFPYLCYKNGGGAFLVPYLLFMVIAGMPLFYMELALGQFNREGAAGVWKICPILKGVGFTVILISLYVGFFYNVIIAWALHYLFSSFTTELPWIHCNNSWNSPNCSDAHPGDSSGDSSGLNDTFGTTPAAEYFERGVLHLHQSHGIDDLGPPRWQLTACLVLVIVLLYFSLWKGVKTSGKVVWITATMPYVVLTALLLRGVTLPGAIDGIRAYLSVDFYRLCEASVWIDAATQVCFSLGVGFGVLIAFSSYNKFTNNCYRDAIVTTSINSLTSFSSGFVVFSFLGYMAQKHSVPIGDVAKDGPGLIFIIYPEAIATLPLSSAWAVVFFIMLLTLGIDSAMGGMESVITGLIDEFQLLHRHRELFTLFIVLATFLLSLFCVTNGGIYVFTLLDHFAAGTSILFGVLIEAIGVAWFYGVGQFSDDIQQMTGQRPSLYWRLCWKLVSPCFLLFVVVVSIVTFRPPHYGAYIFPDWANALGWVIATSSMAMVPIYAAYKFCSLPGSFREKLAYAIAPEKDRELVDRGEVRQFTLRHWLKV
Chain of Adrenergic alpha2A (P08913 whole entry): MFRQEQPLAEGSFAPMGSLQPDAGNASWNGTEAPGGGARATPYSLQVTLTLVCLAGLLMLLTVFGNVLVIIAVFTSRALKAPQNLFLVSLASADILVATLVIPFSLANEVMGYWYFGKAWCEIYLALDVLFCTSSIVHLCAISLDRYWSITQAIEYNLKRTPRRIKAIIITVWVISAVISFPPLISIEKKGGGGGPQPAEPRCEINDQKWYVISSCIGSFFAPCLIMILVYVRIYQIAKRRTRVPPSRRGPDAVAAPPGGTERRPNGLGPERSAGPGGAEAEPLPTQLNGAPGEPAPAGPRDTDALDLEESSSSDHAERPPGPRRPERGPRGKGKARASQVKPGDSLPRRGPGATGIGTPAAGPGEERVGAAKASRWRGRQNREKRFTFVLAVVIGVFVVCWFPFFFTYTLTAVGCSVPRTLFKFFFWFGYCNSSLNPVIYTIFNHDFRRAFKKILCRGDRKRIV
Chain of recombinant human 5-HT2A receptor (P28223 whole entry): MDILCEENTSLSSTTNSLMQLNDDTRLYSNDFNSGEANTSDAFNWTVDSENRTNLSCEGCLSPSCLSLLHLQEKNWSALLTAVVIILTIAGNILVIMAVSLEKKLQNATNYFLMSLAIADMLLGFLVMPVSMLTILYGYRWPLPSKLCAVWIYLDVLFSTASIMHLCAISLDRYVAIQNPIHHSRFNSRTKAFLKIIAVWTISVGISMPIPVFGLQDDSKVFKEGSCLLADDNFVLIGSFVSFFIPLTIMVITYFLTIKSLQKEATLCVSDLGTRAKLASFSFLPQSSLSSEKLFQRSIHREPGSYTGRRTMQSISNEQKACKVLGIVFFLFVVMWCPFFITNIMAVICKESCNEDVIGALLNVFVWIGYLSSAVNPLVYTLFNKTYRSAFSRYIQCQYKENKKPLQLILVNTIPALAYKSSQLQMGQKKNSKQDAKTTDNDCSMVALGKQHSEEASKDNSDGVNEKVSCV
Chain of Dopamine D1 (P21728 whole entry): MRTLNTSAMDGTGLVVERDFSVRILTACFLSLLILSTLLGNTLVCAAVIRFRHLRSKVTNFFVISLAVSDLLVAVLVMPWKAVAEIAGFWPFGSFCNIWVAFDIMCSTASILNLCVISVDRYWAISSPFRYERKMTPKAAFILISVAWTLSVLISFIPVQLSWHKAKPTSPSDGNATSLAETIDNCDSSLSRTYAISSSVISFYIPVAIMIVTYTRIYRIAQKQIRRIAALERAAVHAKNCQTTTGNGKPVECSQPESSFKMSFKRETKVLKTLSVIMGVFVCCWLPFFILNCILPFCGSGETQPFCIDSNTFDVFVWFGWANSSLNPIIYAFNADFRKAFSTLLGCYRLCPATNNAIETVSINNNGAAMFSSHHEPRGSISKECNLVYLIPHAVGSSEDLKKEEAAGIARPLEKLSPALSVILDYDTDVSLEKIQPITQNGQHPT
Chain of Serotonin Transporter (P31645 whole entry): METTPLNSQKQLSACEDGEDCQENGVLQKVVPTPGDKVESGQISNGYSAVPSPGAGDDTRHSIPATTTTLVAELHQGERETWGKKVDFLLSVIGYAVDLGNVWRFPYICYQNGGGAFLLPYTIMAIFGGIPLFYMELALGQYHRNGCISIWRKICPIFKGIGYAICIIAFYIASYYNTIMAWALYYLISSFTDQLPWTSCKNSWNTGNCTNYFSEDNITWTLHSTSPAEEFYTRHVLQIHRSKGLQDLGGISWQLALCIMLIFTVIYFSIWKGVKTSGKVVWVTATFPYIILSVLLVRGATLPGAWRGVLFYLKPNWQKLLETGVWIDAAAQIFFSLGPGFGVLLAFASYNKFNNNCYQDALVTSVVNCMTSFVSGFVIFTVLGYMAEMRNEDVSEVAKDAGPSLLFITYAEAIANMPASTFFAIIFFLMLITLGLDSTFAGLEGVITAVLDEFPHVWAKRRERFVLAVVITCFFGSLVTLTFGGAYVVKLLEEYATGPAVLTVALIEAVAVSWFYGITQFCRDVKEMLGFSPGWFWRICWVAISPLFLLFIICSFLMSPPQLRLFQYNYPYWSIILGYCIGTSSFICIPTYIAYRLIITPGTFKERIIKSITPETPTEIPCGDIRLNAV
Chain of 5-HT7 receptors (P34969 whole entry): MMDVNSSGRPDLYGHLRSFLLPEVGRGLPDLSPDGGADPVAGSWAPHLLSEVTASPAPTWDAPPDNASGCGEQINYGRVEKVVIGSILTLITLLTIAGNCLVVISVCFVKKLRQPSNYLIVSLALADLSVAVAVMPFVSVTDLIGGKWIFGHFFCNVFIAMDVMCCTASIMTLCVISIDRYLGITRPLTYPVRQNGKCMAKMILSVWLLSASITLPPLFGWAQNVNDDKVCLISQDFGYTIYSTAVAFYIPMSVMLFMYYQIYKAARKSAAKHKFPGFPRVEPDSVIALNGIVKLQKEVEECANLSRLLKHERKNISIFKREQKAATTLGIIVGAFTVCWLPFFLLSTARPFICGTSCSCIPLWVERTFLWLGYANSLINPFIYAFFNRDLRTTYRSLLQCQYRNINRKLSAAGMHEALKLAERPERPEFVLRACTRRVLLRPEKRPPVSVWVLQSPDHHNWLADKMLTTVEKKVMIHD

Broadly, the Ki is a measure of affinity in units of concentration, obtained from inhibition or displacement. Regarding `Cc1ccc2c(c1)Oc1sc(SC(C)C)cc1C(N1CCN(CC(C)(C)C(=O)O)CC1)=N2` [Example 1, 3-[4-(2-isopropylsulfanyl-8-methyl-thieno[2,3-b][1,5]benzoxazepin-4-yl)piperazin-1-yl]-2,2-dimethyl-propanoic acid], the Ki in data set [1] is more than 866 nM; in data set [3], more than 6.43 µM; in [4], 4.84 nM; in [6], 763 nM; in data set [7] it was 6.71 µM; in [8], more than 1610 nM. The Ki in [9] was 4.45 µM; in data set [10] it was more than 2060 nM; in data set [11] it was more than 521 nM; in data set [12], 2640 nM; in data set [13], 599 nM. The “approximate EC50, inhibition of DOI induced headshake response” value in data set [2] was approximately 0.5 mg/kg. Moreover, in [5], the “hERG Channel” value was more than 100 µM.
